Measured values reported in PubChem BioAssay (NCI).
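Where inhibition never reached the appropriate level, the endpoint shown equals the highest concentration tested. Otherwise, values were interpolated linearly from a five-concentration, 48-hour dose response in 96-well plates. Abbreviation: GI50, concentration required for 50% inhibition of growth. Definition used: TGI = concentration required for complete inhibition of growth.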

Columns and labels:
Assay in all cases: DTP human tumour cell line panel, 48 h
[1] = test system: 786-0 renal
[2] = test system: A498 renal
[3] = test system: A549 NSCLC
[4] = test system: ACHN renal
[5] = test system: CAKI-1 renal
[6] = test system: CCRF-CEM leukemia
[7] = test system: COLO 205 colon
[8] = test system: DU-145 prostate
[9] = test system: EKVX NSCLC
[10] = test system: HCC-2998 colon
[11] = test system: HCT-15 colon
[12] = test system: HL-60(TB) leukemia
[13] = test system: HOP-62 NSCLC
[14] = test system: HOP-92 NSCLC
[15] = test system: HS 578T breast
[16] = test system: HT29 colon
[17] = test system: IGROV1 ovarian
[18] = test system: KM12 colon
[19] = test system: LOX IMVI melanoma
[20] = test system: M14 melanoma
[21] = test system: MDA-MB-231 breast
[22] = test system: MDA-MB-435
[23] = test system: MOLT-4 leukemia
[24] = test system: NCI-H226 lung
[25] = test system: NCI-H23 lung
[26] = test system: NCI-H460 lung
[27] = test system: NCI-H522 lung
[28] = test system: NCI/ADR-RES ovarian
[29] = test system: OVCAR-3 ovarian
[30] = test system: OVCAR-4 ovarian
[31] = test system: OVCAR-5 ovarian
[32] = test system: OVCAR-8 ovarian
[33] = test system: PC-3 prostate
[34] = test system: RPMI-8226 leukemia
[35] = test system: RXF 393 renal
[36] = test system: SF-268 CNS
[37] = test system: SF-295 CNS
[38] = test system: SF-539 CNS
[39] = test system: SK-MEL-2 melanoma
[40] = test system: SK-MEL-28 melanoma
[41] = test system: SK-MEL-5 melanoma
[42] = test system: SK-OV-3 ovarian
[43] = test system: SN12C renal
[44] = test system: SNB-19 CNS
[45] = test system: SNB-75 CNS
[46] = test system: SR leukemia
[47] = test system: SW-620 colon
[48] = test system: T-47D breast
[49] = test system: TK-10 renal
[50] = test system: U251 CNS
[51] = test system: UACC-257 melanoma
[52] = test system: UACC-62 melanoma
[53] = test system: UO-31 renal
[54] = test system: BT-549 breast
[55] = test system: HCT-116 colon
[56] = test system: K-562 leukemia
[57] = test system: MALME-3M melanoma
[58] = test system: MCF7 breast

COc1ccccc1CNCCCN1C(=O)c2ccc3c4c(ccc(c24)C1=O)C(=O)N(CCCOCCCCOCCCN)C3=O
GI50 [1]: 1.53 µM | TGI [1]: 3.84 µM | GI50 [2]: 1.3 µM | TGI [2]: 2.7 µM | GI50 [3]: 1.22 µM | TGI [3]: 2.82 µM | GI50 [4]: 1.21 µM | TGI [4]: 2.57 µM | GI50 [5]: 1.83 µM | TGI [5]: 5.13 µM | GI50 [6]: 0.559 µM | TGI [6]: 3.54 µM | GI50 [7]: 0.233 µM | TGI [7]: 0.454 µM | GI50 [8]: 1.78 µM | TGI [8]: 3.44 µM | GI50 [9]: 1.19 µM | TGI [9]: 2.52 µM | GI50 [10]: 0.625 µM | TGI [10]: 2.02 µM | GI50 [11]: 0.888 µM | TGI [11]: 3.3 µM | GI50 [12]: 0.668 µM | TGI [12]: 2.06 µM | GI50 [13]: 1.32 µM | TGI [13]: 2.73 µM | GI50 [14]: 2.1 µM | TGI [14]: 4.61 µM | GI50 [15]: 2.02 µM | TGI [15]: 5.7 µM | GI50 [16]: 0.402 µM | TGI [16]: 1.29 µM | GI50 [17]: 1.25 µM | TGI [17]: 3.67 µM | GI50 [18]: 1.26 µM | TGI [18]: 2.79 µM | GI50 [19]: 1.26 µM | TGI [19]: 3.01 µM | GI50 [20]: 1.42 µM | TGI [20]: 4.82 µM | GI50 [21]: 1.08 µM | TGI [21]: 4.14 µM | GI50 [22]: 0.2 µM | TGI [22]: 0.429 µM | GI50 [23]: 0.538 µM | TGI [23]: 2.55 µM | GI50 [24]: 1.56 µM | TGI [24]: 3.02 µM | GI50 [25]: 0.604 µM | TGI [25]: 2.58 µM | GI50 [26]: 0.597 µM | TGI [26]: 2.17 µM | GI50 [27]: 0.802 µM | TGI [27]: 2.18 µM | GI50 [28]: 1.46 µM | TGI [28]: 4.37 µM | GI50 [29]: 0.297 µM | TGI [29]: 0.754 µM | GI50 [30]: 0.193 µM | TGI [30]: 0.54 µM | GI50 [31]: 1.88 µM | TGI [31]: 3.61 µM | GI50 [32]: 0.473 µM | TGI [32]: 2.08 µM | GI50 [33]: 1.45 µM | TGI [33]: 5.17 µM | GI50 [34]: 1.72 µM | TGI [34]: 5.21 µM | GI50 [35]: 0.771 µM | TGI [35]: 2.2 µM | GI50 [36]: 1.42 µM | TGI [36]: 3.63 µM | GI50 [37]: 1.42 µM | TGI [37]: 3.43 µM | GI50 [38]: 1.68 µM | TGI [38]: 3.3 µM | GI50 [39]: 1.83 µM | TGI [39]: 4.04 µM | GI50 [40]: 1.59 µM | TGI [40]: 3.05 µM | GI50 [41]: 0.288 µM | TGI [41]: 1.18 µM | GI50 [42]: 2.35 µM | TGI [42]: 5.76 µM | GI50 [43]: 1.24 µM | TGI [43]: 2.78 µM | GI50 [44]: 1.71 µM | TGI [44]: 4.87 µM | GI50 [45]: 1.79 µM | TGI [45]: 3.6 µM | GI50 [46]: 0.348 µM | TGI [46]: 3.87 µM | GI50 [47]: 0.357 µM | TGI [47]: 1.54 µM | GI50 [48]: 0.926 µM | TGI [48]: 3.34 µM | GI50 [49]: 1.97 µM | TGI [49]: 3.93 µM | GI50 [50]: 1.23 µM | TGI [50]: 2.69 µM | GI50 [51]: 0.272 µM | TGI [51]: 0.892 µM | GI50 [52]: 0.645 µM | TGI [52]: 1.96 µM | GI50 [53]: 1.55 µM | TGI [53]: 3.15 µM

O=C1OC(C(O)CO)C(=O)C1=O (stereo unspecified)
GI50 [1]: 3170 µM | TGI [1]: 8770 µM | GI50 [2]: 2520 µM | TGI [2]: 8510 µM | GI50 [3]: 9790 µM | TGI [3]: > 10000 µM | GI50 [4]: 2860 µM | TGI [4]: > 10000 µM | GI50 [54]: 4320 µM | TGI [54]: > 10000 µM | GI50 [5]: 3220 µM | TGI [5]: 9630 µM | GI50 [6]: 2940 µM | TGI [6]: > 10000 µM | GI50 [7]: 2800 µM | TGI [7]: 6730 µM | GI50 [8]: 1720 µM | TGI [8]: 3130 µM | GI50 [10]: > 10000 µM | TGI [10]: > 10000 µM | GI50 [55]: 2460 µM | TGI [55]: 6520 µM | GI50 [11]: 3420 µM | TGI [11]: > 10000 µM | GI50 [13]: 3720 µM | TGI [13]: 8570 µM | GI50 [14]: 2060 µM | TGI [14]: 4230 µM | GI50 [15]: 3250 µM | TGI [15]: 9940 µM | GI50 [16]: 4240 µM | TGI [16]: > 10000 µM | GI50 [17]: 2350 µM | TGI [17]: 5170 µM | GI50 [56]: 2860 µM | TGI [56]: 9080 µM | GI50 [18]: 3500 µM | TGI [18]: > 10000 µM | GI50 [19]: 1950 µM | TGI [19]: 4990 µM | GI50 [20]: 6700 µM | TGI [20]: > 10000 µM | GI50 [57]: 2070 µM | TGI [57]: 4870 µM | GI50 [58]: 2350 µM | TGI [58]: 5860 µM | GI50 [21]: 2720 µM | TGI [21]: > 10000 µM | GI50 [22]: 2120 µM | TGI [22]: 4290 µM | GI50 [23]: 4120 µM | TGI [23]: > 10000 µM | GI50 [24]: > 10000 µM | TGI [24]: > 10000 µM | GI50 [25]: 4680 µM | TGI [25]: > 10000 µM | GI50 [26]: 3540 µM | TGI [26]: > 10000 µM | GI50 [27]: 1850 µM | TGI [27]: 3460 µM | GI50 [28]: 7060 µM | TGI [28]: > 10000 µM | GI50 [30]: 5580 µM | TGI [30]: > 10000 µM | GI50 [31]: 2050 µM | TGI [31]: 4330 µM | GI50 [32]: 5270 µM | TGI [32]: > 10000 µM | GI50 [33]: 4410 µM | TGI [33]: > 10000 µM | GI50 [34]: 2460 µM | TGI [34]: 8420 µM | GI50 [35]: 1700 µM | TGI [35]: 3210 µM | GI50 [36]: 2720 µM | TGI [36]: 6600 µM | GI50 [37]: 7430 µM | TGI [37]: > 10000 µM | GI50 [38]: 2490 µM | TGI [38]: 5440 µM | GI50 [39]: > 10000 µM | TGI [39]: > 10000 µM | GI50 [40]: > 10000 µM | TGI [40]: > 10000 µM | GI50 [41]: > 10000 µM | TGI [41]: > 10000 µM | GI50 [42]: 2910 µM | TGI [42]: 7200 µM | GI50 [43]: 2530 µM | TGI [43]: 7090 µM | GI50 [44]: 8280 µM | TGI [44]: > 10000 µM | GI50 [45]: 6160 µM | TGI [45]: > 10000 µM | GI50 [46]: 3860 µM | TGI [46]: > 10000 µM | GI50 [47]: 2070 µM | TGI [47]: 5080 µM | GI50 [48]: 2790 µM | TGI [48]: 7700 µM | GI50 [49]: 2080 µM | TGI [49]: 3570 µM | GI50 [50]: 5090 µM | TGI [50]: > 10000 µM | GI50 [51]: > 10000 µM | TGI [51]: > 10000 µM | GI50 [52]: 4330 µM | TGI [52]: > 10000 µM | GI50 [53]: 1850 µM | TGI [53]: 4600 µM
